Laboratory results reported in PMC3534865 (Bioorganic & medicinal chemistry letters, 2012).
Entries after “also recorded” stand apart in the source; their conditions may differ.

What was measured:
human M1 (hM1) [1] = biological target: T1, human M1 (hM1) (Homo sapiens, UniProt P11229); assay: hM1 PAM functional; assay type: cell-based; settings: for hM1 PAM activity: tested up to 30 μM; for efficacy (% AChmax) compared with ML137: at the highest concentration tested of 30 μM; for pEC50: Table 2, hM1, mean ± SEM
T1 sequence (P11229 1-460): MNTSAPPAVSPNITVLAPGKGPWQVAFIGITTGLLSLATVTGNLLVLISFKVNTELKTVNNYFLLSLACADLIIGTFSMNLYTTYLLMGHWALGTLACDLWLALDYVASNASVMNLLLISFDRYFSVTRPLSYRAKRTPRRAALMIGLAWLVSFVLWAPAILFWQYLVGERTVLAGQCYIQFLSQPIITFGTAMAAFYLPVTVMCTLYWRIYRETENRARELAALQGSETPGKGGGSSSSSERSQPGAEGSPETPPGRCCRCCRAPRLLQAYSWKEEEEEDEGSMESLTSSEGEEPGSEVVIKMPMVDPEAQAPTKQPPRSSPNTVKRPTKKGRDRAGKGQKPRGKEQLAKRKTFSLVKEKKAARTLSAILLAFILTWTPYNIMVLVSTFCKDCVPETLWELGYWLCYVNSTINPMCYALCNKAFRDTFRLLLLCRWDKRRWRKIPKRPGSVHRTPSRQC

human M1 (hM1) [2] = biological target: T1, human M1 (hM1); settings: cited from earlier work
[3] = Chemical stability observation; assay type: physicochemical; settings: presumed air oxidation or self-condensation
hM1 = biological target: T2, hM1 (Homo sapiens, UniProt P11229); assay: ACh fold-shift experiment; assay type: cell-based; settings: ML137 to 14
T2 sequence (P11229 1-460): T1 sequence (P11229 1-460)

[4] = test system: human muscarinic receptor subtypes; assay type: cell-based; settings: hM1 over the other muscarinic receptor subtypes; Figure 4

hM1 PAM activity (human M1 (hM1) [1])	SMILES	other results
complete loss of activity	CC(C)n1cc(-c2ccc(CN3C(=O)C(O)(C(F)(F)F)c4ccccc43)c(F)c2)cn1 (stereo not shown) [Compound 23l]	
	Cn1cc(-c2ccc(CN3C(=O)C(=O)c4ccccc43)c(F)c2)cn1 [ML137]	%AChmax previously reported (human M1 (hM1) [2]): 65%
	Cn1cc(-c2ccc(CN3c4ccccc4CS3(=O)=O)c(F)c2)cn1 [Compound 13]	efficacy (% AChmax) compared with ML137 (human M1 (hM1) [1]): comparable efficacy
	Cn1cc(-c2ccc(CN3C(=O)C(N)c4ccccc43)c(F)c2)cn1 (stereo not shown) [Compound 23b]	increase in hM1 potency over 14 (human M1 (hM1) [1]; ratio of EC50 vs 14): 2 fold; chemical stability [3]: undesirable level of chemical instability
weakly active	CN(C)C1(C)C(=O)N(Cc2ccc(-c3cnn(C)c3)cc2)c2ccccc21 (stereo not shown) [Compound 23d]	
	Cn1cc(-c2ccc(CN3C(=O)COc4ccccc43)c(F)c2)cn1 [Compound 24e]	pEC50 (human M1 (hM1) [1]): 5.29 ± 0.09
complete loss of activity	CCCn1cc(-c2ccc(CN3C(=O)C(O)(C(F)(F)F)c4ccccc43)c(F)c2)cn1 (stereo not shown) [Compound 23k]	
loss of all PAM activity	Cn1cc(-c2ccc(Cn3ccccc3=O)c(F)c2)cn1 [Compound 24d]	
	Cn1cc(-c2ccc(CN3C(=O)Cc4ccccc43)c(F)c2)cn1 [Compound 14]	decrease in hM1 PAM EC50 (potency) relative to ML137 (human M1 (hM1) [1]; ML137 to 14): 4 fold; efficacy (% AChmax) compared with ML137 (human M1 (hM1) [1]): comparable efficacy; improvement in ACh fold-shift relative to ML137 (hM1): 10 fold; muscarinic receptor subtype selectivity [4]: little-to-no erosion of muscarinic subtype selectivity; also recorded: very selective for the hM1 receptor
weakly active	Cn1cc(-c2ccc(CN3C(=O)C(C)(N)c4ccccc43)c(F)c2)cn1 (stereo not shown) [Compound 23c]	
	Cn1cc(-c2ccc(CN3C(=O)C(C)(O)c4ccccc43)c(F)c2)cn1 (stereo not shown) [Compound 23e]	chemical stability [3]: stable
no activity at all	Cn1cc(-c2ccc(CN3CCSc4ccccc43)c(F)c2)cn1 [Compound 24k]	
detrimental to activity	Cn1cc(-c2ccc(CN3C(=O)c4cccc5cccc3c45)c(F)c2)cn1 [Compound 18]	
complete loss of activity	O=C1N(Cc2ccc(-c3cn[nH]c3)cc2F)c2ccccc2C1(O)C(F)(F)F (stereo not shown) [Compound 23m]	
	Cn1cc(-c2ccc(CN3C(=O)CSc4ccccc43)c(F)c2)cn1 [Compound 24h]	pEC50 (human M1 (hM1) [1]): 5.49 ± 0.12
inactive	CC(=O)N(Cc1ccc(-c2cnn(C)c2)cc1F)c1ccccc1 [Compound 17]	

SMILES	hM1 PAM activity (human M1 (hM1) [1])	other results
Cn1cc(-c2ccc(Cn3c(=O)[nH]c4ccccc43)c(F)c2)cn1 [Compound 15]	not tolerated	
Cn1cc(-c2ccc(CN3CCc4ccccc43)c(F)c2)cn1 [Compound 16]	not tolerated	
